The values that follow come from article PMC12372887, “Mechanism and cellular actions of the potent AMPK inhibitor BAY-3827” (Science Advances, 2025).

Experiment [1] concerns AMPKα1α2+/+ control primary hepatocytes. Briefly: Lipogenesis assay ([14C]-acetate incorporation into fatty acids). The format is cell-based, mouse. The method, then:
(§1) Mouse hepatocytes were isolated by collagenase perfusion as previously described ([47]). Hepatocytes were seeded in medium Eagle-199 (MEM-199) (#41150, Thermo Fisher Scientific) containing penicillin G (100 U/ml), streptomycin (100 μg/ml), and 10% (v/v) fetal bovine serum (FBS). Hepatocytes were left for attachment (3 to 4 hours) and serum-starved overnight at 37°C with 5% CO2 in MEM-199 supplemented with penicillin G (100 U/ml), streptomycin (100 μg/ml), 10 nM insulin, and 100 nM dexamethasone. […] Cells were then harvested in 0.5 ml of phosphate-buffered saline (PBS), transferred into 1 ml of 40% KOH and 2 ml of methanol followed by 1-hour incubation at 80°C. Lipids were […] by acidifying the samples in 37% HCl and extracted with petroleum ether. Extracts were allowed to evaporate to dryness and then dissolved in Ultima Gold scintillation fluid for determination of [^14C]-acetate incorporation into lipids.

The next experiment has as its system 119 kinases. Details: method as in PMID 21740966. Conditions: of 119 kinases, 1 μM; cited from earlier work.
Experiment [2] deals with AMPK. Details: method as in PMID 29695504. Particulars: 20 μM ATP; read-out: median inhibitory concentration (IC50); cited from earlier work.
The test system of the next experiment is HEK293 cells. As to the kind of experiment: RSK signaling immunoblot in HEK293 cells. The experiment is classed as cell-based, human. The method, then: HEK293 cells (Invitrogen, R75007) were seeded at a density of 500,000 cells per well in six-well cell culture plates (Corning Incorporated Costar #3516) in Dulbecco’s modified Eagle medium (DMEM) high-glucose + GlutaMAX Supplement, pyruvate (Thermo Fisher Scientific, catalog no. 31966-021) containing penicillin G (100 U/ml), streptomycin (100 μg/ml), and 10% (v/v) FBS. Once attached, the next day, the media were changed to serum-free and the cells were starved for 16 hours followed by compound treatment with BAY-3827, BI-D1870 (MedChemExpress, #HY-10510) ± 10 μM MK-2206 dihydrochloride (MedChemExpress, #HY-10358) with 30 min incubation at 37°C followed by coincubation with […] (MedChemExpress, #HY-18739) or vehicle for additional 30 min with final assay DMSO concentration of 0.13%. All cell lines used here were tested monthly for mycoplasma and tested negative.
Following compound treatment, the cells were washed with room temperature PBS and lysed on ice with the addition of lysis buffer [50 mM tris-HCl (pH 7.5), 150 mM NaCl, 1 mM EDTA, 1 mM EGTA, 0.27 M sucrose, 1% w/v Triton X-100, 20 mM glycerol-2 phosphate disodium, 50 mM NaF, and 5 mM Na4P2O7.10 H2O] containing proteases and phosphatase inhibitors [0.5 mM phenylmethylsulfonyl fluoride (PMSF), 1 mM benzamidine HCl, leupeptin (1 μg/ml), pepstatin A (1 μg/ml), 1 μM microcystin-LR, 1 mM Na3VO4, and 1 mM DTT]. Lysates were centrifuged at 10,000g, 4°C for 10 min, and protein concentration of the supernatant was determined with the Pierce Bradford Protein Assay Kit (Thermo Fisher Scientific, #23200) and read on the Hidex Plate Reader (software version 0.5.64.0). Samples were prepared in Laemmli sample buffer (tris 200 mM, 8% SDS, EDTA 2 mM, and 40% glycerol) supplemented with 10% DTT and boiled for 5 min at 100°C. Ten micrograms of protein per sample was run on a Criterion tris-glycine polyacrylamide gel (Bio-Rad, #5678095) and transferred to a nitrocellulose membrane. For cell signaling experiments in HEK293 cells, the samples were run on a Criterion TGX stain-free precast gel (Bio-Rad, catalog no. 5678085) with transfer to a polyvinylidene difluoride membrane performed in Bio-Rad Criterion blotter (#1704071) using tris-glycine transfer buffer (Bio-Rad, #1610734) following the manufacturer’s instructions. The membranes were probed at 4°C overnight in a 4% BSA TBS-T solution containing 0.02% sodium azide with the following antibodies where appropriate: Phospho-ACC (Ser^79) (1:1000, Cell Signaling Technology, #3661S), ACC (C83B10) (1:1000, Cell Signaling Technology, #3676S), phospho-Raptor (Ser^792) (1:1000, Cell Signaling Technology, #2083S), Raptor (24C12) (1:1000, Cell Signaling Technology, #2280S), GSK3αβ (1:2000, Sigma-Aldrich, #04-903), phospho-GSK3αβ (Ser^21/9) (D17D2) (1:1000, Cell Signaling Technology, #8566S), ERK1/2 (137F5) (1:1000, Cell Signaling Technology, #4695), phospho-ERK1/2 (Thr^202/Tyr^204) (D13.14.4E) (1:1000, Cell Signaling Technology, #4370), phospho-AMPKα (Thr^172) (40H9) (1:1000, Cell Signaling Technology, #2535S), AMPKα (1:1000, Cell Signaling Technology, #2532S), anti–glyceraldehyde-3-phosphate dehydrogenase antibody (1:5000, Cell Signaling Technology, #G8795), and vinculin (1:1000, Cell Signaling Technology, #13901). Membranes were scanned using the Odyssey Fc LiCor system (exposure time, 30 s) with densitometry analysis performed using LiCor Image Studio Lite normalizing to control loading protein. Figures were made using GraphPad Prism v10.
(In western blotting, separated proteins are transferred to a membrane and probed.)

For the next experiment, the system named is RSK2. Details: method as in PMID 20439741. Particulars: cited from earlier work.
Experiment [3] concerns AMPK. More on the design: method as in PMID 20439741. Particulars: cited from earlier work.
The test system of a further experiment is RSK1. Details: method as in PMID 20439741. Conditions: cited from earlier work.
The subject of experiment [4] is AMPKα1α2−/− DKO primary hepatocytes. Briefly: Lipogenesis assay ([14C]-acetate incorporation into fatty acids). The format is cell-based, mouse. The protocol: as §1
Experiment [5] concerns pThr172-AMPKα in U2OS cells. As to the kind of experiment: HTRF assay of Thr172-AMPKα phosphorylation in U2OS cells. The format is cell-based, human. Particulars: 10 μM. The protocol:
(§2) Human osteosarcoma U2OS WT cells were obtained from John Rouse (MRC Protein Phosphorylation and Ubiquitylation Unit, University of Dundee) and were cultured in DMEM high glucose + GlutaMAX Supplement, pyruvate (Thermo Fisher Scientific, catalog no. 31966-021) containing penicillin G (100 U/ml), streptomycin (100 μg/ml), and 10% (v/v) FBS seeding with 50,000 cells per well in a 50-μl volume in culture 96-well cell culture plates (Corning Incorporated costar, #3599). The next day, the media were changed to 50 μl of serum-free media, and 50 μl of serum-free media containing BAY-3827 or BAY-974 was dispensed and left to incubate at 37°C for 30 min. […] HTRF assays using either phospho-Ser^79-ACC1 kit (Revvity, #64ACCPEG) or phospho-Thr^172-AMPK kit (Revvity, #64AMPKPEG) were performed in triplicate in HTRF 96-well low volume white plates (Revvity, #66PL96001) following manufacturer’s instructions. Sealed plates incubated overnight in darkness conditions were scanned at room temperature in Multimode Plate Reader EnVision (PerkinElmer) machine following HTRF setup recommendations for EnVision (Revvity), equipped with a top mirror LANCE/DELFIA single mirror (#412), a UV2 (TRF) 320 excitation filter (#111), emission filter APC 665 (#205), and second emission filter Europium 615 (#203), with a 2000-μs cycle and 60-μs delay, with the number of flashes set to 100 as well as for the 2nd detector. Results were viewed in EnVision Manager software (version 1.13.3009.1401) where 665/615 ratios were calculated, and data were normalized to control condition as %. All assay ratios between control lysate signal/nonspecific signal were greater than 2 as expected of a successful assay following the manufacturer’s instructions. Data were visualized in GraphPad Prism v10.
For orientation: In TR-FRET formats the signal depends on donor and acceptor labels being close together.

In experiment [6] the test system is pSer79-ACC1 in U2OS cells. As to the kind of experiment: HTRF assay of Ser79-ACC1 phosphorylation in U2OS cells. The format is cell-based, human. Conditions: 10 μM. The method, then: as §2

Each structure is given as a SMILES string. Like-named read-outs stand apart in the source and are kept apart here. Some results are limits rather than exact numbers.

For the compound `c1cc(-c2cnn3cc(-c4ccc(OCCN5CCCCC5)cc4)cnc23)ccn1` [compound C], the “restoration of MK-8722–inhibited lipogenesis” value in [1] (25 μM, + MK-8722 (10 μM)) stood at 10%. In addition, the “number of kinases inhibited more potently than AMPK” value in the experiment with 119 kinases is recorded as 34. Further, the IC50 with AMPK [2] is […].

With `NC1(c2ccc(-c3nc4ccn5c(=O)[nH]nc5c4cc3-c3ccccc3)cc2)CCC1` [MK-2206], in the experiment on HEK293 cells (10 μM), the “basal pGSK3αβ” value is “reduced”.

As for `CC(C)CCN1c2nc(Nc3cc(F)c(O)c(F)c3)ncc2N(C)C(=O)C1C` (stereo not drawn) [BI-D1870], in the experiment with HEK293 cells (10 μM, in the presence of MK-2206 (10 μM)), the “PMA-stimulated pGSK3αβ (surrogate of RSK activity)” value is listed as “inhibited to the same extent”. In the experiment with HEK293 cells (serum-starved HEK293, 1 and 10 μM), the ACC1 phosphorylation result is recorded as “no effect”.

Turning to `CNC(=O)c1ccccc1Oc1nc(Nc2cc(OC)c(OC)c(OC)c2)ncc1Br` [SBI-0206965], in the experiment with AMPK [2], the IC50 was 160 nM.

With `CCCCCCCCCCCCCC(=O)O[C@@H]1[C@@H](C)[C@@]2(O)[C@@H](C=C(CO)C[C@]3(O)C(=O)C(C)=C[C@@H]23)[C@@H]2C(C)(C)[C@]12OC(C)=O` [PMA, phorbol 12-myristate 13-acetate], the “pERK1/2 and pGSK3αβ levels” value with HEK293 cells (0.1 μM, MK-2206–treated conditions) is reported as “robustly increased”.

For `Cc1nc(Nc2n[nH]c3c2CN(C(=O)N[C@H](CN(C)C)c2ccccc2)C3(C)C)c2sccc2n1` [PF-03758309], the IC50 is 2 nM with RSK2, 1 nM in the experiment on AMPK [3] and 2 nM with RSK1.

`O[C@@H]1CO[C@H]2[C@@H]1OC[C@H]2Oc1nc2nc(-c3ccc(-c4ccccc4)cc3)c(Cl)cc2[nH]1` [MK-8722]: the effect on lipogenesis result in experiment [4] is given as “no effect”. Also, the suppression of lipogenesis in [1] (compound alone, 10 μM) is given as above 80%. For the same compound, the pThr172-AMPK versus vehicle entry in experiment [5] is recorded as “significant increase”. The pSer79-ACC1 versus vehicle entry in experiment [6] is “significant increase”.
